# In patent publication US7235649B2, “Isolated GRP94 ligand binding domain polypeptide and nucleic acid encoding same, and screening methods employing same” (Duke University, priority 2000, dated 2007):
# Assays:
# GRP94 [1] = biological target: T1, GRP94 (Sus scrofa, UniProt Q29092); experiment: GRP94 autophosphorylation assay; type: biochemical, porcine; design: GRP94 was purified from porcine pancreas rough microsomes; from tissue; host or cells: porcine pancreas rough microsomes; conditions: 180 μM NECA or 180 μM radicicol in 3.6% DMSO, 5 μg/ml heparin, 5 mM GTP; 1 hour 37° C.
# T1 sequence (Q29092 22-804): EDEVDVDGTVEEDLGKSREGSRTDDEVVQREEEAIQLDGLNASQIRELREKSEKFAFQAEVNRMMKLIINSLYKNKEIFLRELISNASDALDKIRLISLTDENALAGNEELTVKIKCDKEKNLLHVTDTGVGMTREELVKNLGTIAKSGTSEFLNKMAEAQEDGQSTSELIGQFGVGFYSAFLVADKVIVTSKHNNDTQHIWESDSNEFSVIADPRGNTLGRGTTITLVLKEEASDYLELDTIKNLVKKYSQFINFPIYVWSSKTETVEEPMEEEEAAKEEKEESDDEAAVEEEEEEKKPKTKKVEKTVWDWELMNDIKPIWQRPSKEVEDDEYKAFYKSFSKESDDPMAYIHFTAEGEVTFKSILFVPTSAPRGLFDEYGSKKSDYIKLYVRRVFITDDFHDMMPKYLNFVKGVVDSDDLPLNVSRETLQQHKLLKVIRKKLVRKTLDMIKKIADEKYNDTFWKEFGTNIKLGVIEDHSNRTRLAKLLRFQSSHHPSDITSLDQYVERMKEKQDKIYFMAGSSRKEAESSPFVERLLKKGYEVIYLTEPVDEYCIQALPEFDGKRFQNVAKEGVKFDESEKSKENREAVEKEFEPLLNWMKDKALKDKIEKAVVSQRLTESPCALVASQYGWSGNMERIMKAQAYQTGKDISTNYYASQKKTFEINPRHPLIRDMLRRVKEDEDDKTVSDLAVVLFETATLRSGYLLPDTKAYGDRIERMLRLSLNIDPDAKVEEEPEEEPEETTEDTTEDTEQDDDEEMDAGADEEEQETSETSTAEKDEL
# Method: (§1) Phosphorylation Assays. […] For the casein kinase assay, 1 unit of casein kinase 11 was incubated as described above, with the addition of 4 μM casein. […] The 25 μl reaction mixtures were incubated at 37° C. for 1 hour and quenched by addition of 10% trichloroacetic acid. Samples were analyzed by 10% SDS-PAGE gels and the phosphorylated species were quantitated using a Fuji MACBAS1000™ phosphorimaging system (Fuji Medical Systems of Stamford, Conn.).
# GRP94 [2] = biological target: T1, GRP94; experiment: [3H]-NECA competitive displacement assay; type: binding, porcine; design: GRP94 was purified from porcine pancreas rough microsomes; from tissue; host or cells: porcine pancreas rough microsomes; conditions: for nucleoside base specificity: binding by [3H]-NECA competitive displacement: competitors all at 50 μM; for nucleoside base specificity: binding by [3H]-NECA competitive displacement / competition with [3H]-NECA for binding to GRP94 (adenosine ligands): 20 nM [3H]-NECA; for competition with [3H]-NECA for binding to GRP94 (adenosine ligands): nominal (80 μM) Mg2+; for effect of excess Mg2+ on binding to GRP94: 10 mM Mg(OAc)2 vs nominal endogenous magnesium
# casein kinase II = casein kinase II (Homo sapiens, UniProt P68400); experiment: Casein kinase II assay with casein; type: biochemical; conditions: 180 μM NECA or 180 μM radicicol in 3.6% DMSO, 5 μg/ml heparin, 5 mM GTP; 4 μM casein
# Sequence of casein kinase II (P68400 whole entry): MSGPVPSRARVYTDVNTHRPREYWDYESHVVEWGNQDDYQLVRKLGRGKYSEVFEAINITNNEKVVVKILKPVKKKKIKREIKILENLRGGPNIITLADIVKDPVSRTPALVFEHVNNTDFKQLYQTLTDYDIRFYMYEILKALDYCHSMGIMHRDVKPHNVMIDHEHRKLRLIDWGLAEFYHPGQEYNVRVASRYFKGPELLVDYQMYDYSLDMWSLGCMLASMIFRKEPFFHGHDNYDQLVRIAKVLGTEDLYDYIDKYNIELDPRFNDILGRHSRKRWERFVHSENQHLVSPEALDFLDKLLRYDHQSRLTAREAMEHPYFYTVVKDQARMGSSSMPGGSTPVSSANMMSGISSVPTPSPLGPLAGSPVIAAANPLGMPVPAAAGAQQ
# Sequence of casein kinase II (P67870 whole entry partner): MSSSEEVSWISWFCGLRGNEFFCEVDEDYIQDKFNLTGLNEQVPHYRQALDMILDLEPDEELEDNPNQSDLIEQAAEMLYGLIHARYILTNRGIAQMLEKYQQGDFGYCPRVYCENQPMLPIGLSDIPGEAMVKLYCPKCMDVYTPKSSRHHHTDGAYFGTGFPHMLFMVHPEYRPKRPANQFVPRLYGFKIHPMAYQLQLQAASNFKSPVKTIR
# Method: as §1
# [3] = biological target: N-terminal nucleotide binding pocket of Hsp90 (Saccharomyces cerevisiae, UniProt P02829); conditions: cited from earlier work
# Sequence of N-terminal nucleotide binding pocket of Hsp90 (P02829 whole entry): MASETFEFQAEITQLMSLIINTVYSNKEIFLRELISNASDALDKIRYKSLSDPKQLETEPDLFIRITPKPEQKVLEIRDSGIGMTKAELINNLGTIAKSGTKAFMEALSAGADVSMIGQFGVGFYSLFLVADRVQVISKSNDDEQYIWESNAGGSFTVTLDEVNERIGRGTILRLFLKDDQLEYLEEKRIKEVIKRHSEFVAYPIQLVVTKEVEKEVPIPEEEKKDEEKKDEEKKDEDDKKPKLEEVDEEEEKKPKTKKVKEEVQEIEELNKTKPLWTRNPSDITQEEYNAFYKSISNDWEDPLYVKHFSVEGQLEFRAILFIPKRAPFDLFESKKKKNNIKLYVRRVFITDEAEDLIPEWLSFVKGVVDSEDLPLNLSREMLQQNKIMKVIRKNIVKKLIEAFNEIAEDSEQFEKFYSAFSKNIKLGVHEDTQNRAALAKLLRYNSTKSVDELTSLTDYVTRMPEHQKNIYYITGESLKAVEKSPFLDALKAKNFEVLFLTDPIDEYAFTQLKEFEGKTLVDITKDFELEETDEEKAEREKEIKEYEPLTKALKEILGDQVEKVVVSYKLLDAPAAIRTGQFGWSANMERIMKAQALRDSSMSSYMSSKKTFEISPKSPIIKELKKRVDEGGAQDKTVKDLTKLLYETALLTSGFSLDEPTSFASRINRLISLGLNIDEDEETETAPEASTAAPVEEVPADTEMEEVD
# GRP94 [4] = biological target: T1, GRP94; experiment: Tryptophan fluorescence (ligand-induced conformational change); conditions: 50 μM NECA, 50 μM geldanamycin, 2.5 mM ATP or 2.5 mM ADP, 1 hour at 37° C.
# Method: Tryptophan Fluorescence. Tryptophan fluorescence measurements were conducted in a FLUOROMAX™ spectrofluorometer (Spex Industries, Inc. of Edison, N.J.) with the slit widths set to 1 nm for both excitation and emission. […] All spectra were corrected by subtraction of buffer or buffer plus ligand samples. […] Samples were then cooled to room temperature, transferred to a quartz cuvette, and the spectra collected.
# GRP94 [5] = biological target: T1, GRP94; experiment: Fluorophore binding reactions with native or heat shocked GRP94 (fluorescence emission); conditions: for fluorophore binding to heat shocked GRP94: 0.5 μM GRP94 heat shocked 15 minutes at 50° C., 5 μM probe; for fluorophore binding to native GRP94: 0.5 μM native GRP94, 5 μM probe, 30 min at 37° C.
# GRP94 [6] = biological target: T1, GRP94; experiment: Identification of the bis-ANS binding site by photo-crosslinking, trypsin digestion and Edman sequencing; design: GRP94 was purified from porcine pancreas rough microsomes; from tissue; host or cells: porcine pancreas rough microsomes; species or system porcine; conditions: 50 μM bis-ANS photo-crosslinked 15 minutes on ice
# GRP94 [7] = biological target: T1, GRP94; type: biochemical, porcine; design: GRP94 was purified from porcine pancreas rough microsomes; from tissue; host or cells: porcine pancreas rough microsomes; conditions: bis-ANS treated GRP94, ten-fold molar excess [125I]-VSV8, 30 min at 37° C.
# GRP94 [8] = biological target: T1, GRP94; experiment: Conformational analysis by tryptic proteolysis and SDS-PAGE; type: biochemical, porcine; design: GRP94 was purified from porcine pancreas rough microsomes; from tissue; host or cells: porcine pancreas rough microsomes; conditions: 5 μM GRP94, 50 μM bis-ANS one hour at 37° C., 0.1% trypsin
# HSP90 = experiment: as above; type: biochemical; conditions: bis-ANS treatment
# Method: Conformational Analysis by Proteolysis. […] Samples were then combined with 0.1% trypsin and digested for 30 minutes at 37° C. An equal volume of SDS-PAGE sample buffer was added and the samples were snap frozen in liquid nitrogen. Immediately prior to gel analysis, samples were thawed and boiled for 5 minutes. […] Gels were fixed and stained with Coomassie Blue.
# GRP94 [9] = biological target: T1, GRP94; experiment: Blue native polyacrylamide gel electrophoresis (oligomeric state); type: biochemical, porcine; design: GRP94 was purified from porcine pancreas rough microsomes; from tissue; host or cells: porcine pancreas rough microsomes; conditions: ten-fold molar excess of bis-ANS
# Method: Native Blue Electrophoresis. The oligomeric state of GRP94 was assayed by blue native polyacrylamide gel electrophoresis (BN-PAGE) as described by Schagger et al. (1994) Anal Biochem 217:220–230. GRP94 was either heat shocked or exposed to a 10-fold molar excess of bis-ANS for the indicated times. Samples were then dissolved in 15% glycerol and loaded onto 5–18% gradient gels with 0.02% Coomassie Brilliant Blue in the cathode buffer. Gels were run at 4° C., stained with Coomassie Blue, de-stained and dried.
# When purified from tissue, GRP94 exists as a homodimer, as described by Wearsch & Nicchitta (1996a) Prot Express Purif 7(1):114–21; Nemoto et al. (1996) J Biochem 120:249–256. Following heat shock however, GRP94 forms higher molecular weight complexes, as described by Wearsch et al. (1998) Biochemistry 37:5709–5719. To further characterize the effects of bis-ANS on GRP94 structure, the oligomerization states of native, heat shocked and bis-ANS treated GRP94 were assayed by the blue native polyacrylamide gel electrophoresis (BN-PAGE) technique described by Schagger et al. (1994). In these experiments, GRP94 was incubated with bis-ANS or briefly heat shocked and subsequently incubated at 37° C. The samples were then analyzed by BN-PAGE. […] However, exposure to heat shock causes a relatively rapid formation of tetramers, hexamers, and octamers (FIG. 4, lanes 2–4).
# GRP94 [10] = biological target: T1, GRP94; experiment: Far-UV circular dichroism; type: biochemical, porcine; design: GRP94 was purified from porcine pancreas rough microsomes; from tissue; host or cells: porcine pancreas rough microsomes; conditions: 1 μM GRP94, 10 μM bis-ANS 2 hours
# Method: Circular Dichroism Measurements. Far-UV CD spectrometry was performed on an AVIV Associates 62DS™ circular dichroism spectrometer (AVIV Associates of Lakewood, N.J.). Samples were analyzed in a 1 mm path length quartz cuvette at 37° C. GRP94 samples (1 μM) were prepared in standard phosphate buffered saline solution as buffer A produced unacceptable dynode voltages in the relevant region of the spectrum. GRP94 was incubated with 10 μM bis-ANS for 2 hours at 37° C. prior to obtaining spectra. Spectra were recorded from 300 to 195 nm. The α-helical content of GRP94 was calculated from the molar ellipticity at 222 nm. See Myers & Jakoby (1975) J Biol Chem 250:3785–3789.
# To gain further insight into the nature of the bis-ANS dependent conformational change, GRP94 was subjected to heat shocked or treated with bis-ANS and far-UV CD spectra obtained (FIG. 5).
# GRP94 [11] = biological target: T1, GRP94; experiment: Citrate synthase thermal aggregation assay (GRP94 chaperone activity); type: biochemical, porcine; design: GRP94 was purified from porcine pancreas rough microsomes; from tissue; host or cells: porcine pancreas rough microsomes; conditions: 1 μM GRP94 preincubated two hours with 10 μM bis-ANS, 0.15 μM citrate synthase, 43° C.
# Method: Citrate Synthase Aggregation Assays. The effects of GRP94 on the thermal aggregation of citrate synthase were assayed by the methods described by Buchner et al. (1998) Methods Enzymol 290:323–338. Samples containing no protein, or GRP94 (1 μM), were incubated in 40 mM HEPES pH 7.5 for two hours at 37° C. with either 0.2% DMF or 10 μM bis-ANS. The samples were then warmed to 43° C. for five minutes and placed in a spectrofluorometer thermostatted at 43° C. Citrate synthase was then added to 0.15 μM final concentration and the thermal aggregation of the enzyme followed by light scattering. Excitation and emission wavelengths were both 500 nm with 2 nm slit width. The time course of citrate synthase aggregation was followed for 1000 seconds.
# To determine if the bis-ANS-dependent conformational changes in GRP94 were of functional significance, the molecular chaperone activities of native, heat shocked and bis-ANS treated GRP94 were evaluated in a thermal aggregation assay, as described by Jakob et al. (1995) J Biol Chem 270:7288–7294 and Buchner et al. (1998) Methods Enzymol 290:323–338. […] Following experimental treatment of the GRP94, reactions were equilibrated at 43° C., citrate synthase then added and aggregation, as represented by light scattering, was measured.
molecule,measurement,setting,value
Nc1nc2c(ncn2[C@@H]2O[C@H](COP(=O)(O)OP(=O)(O)OP(=O)(O)O)[C@@H](O)[C@H]2O)c(=O)[nH]1 [GTP],effect on GRP94 autophosphorylation activity,GRP94 [1],markedly attenuated
same,nucleoside base specificity: binding by [3H]-NECA competitive displacement,GRP94 [2],little to no binding
same,effect on casein kinase II activity,casein kinase II,markedly attenuated
O=c1ccn([C@@H]2O[C@H](COP(=O)(O)OP(=O)(O)OP(=O)(O)O)[C@@H](O)[C@H]2O)c(=O)[nH]1 [UTP],nucleoside base specificity: binding by [3H]-NECA competitive displacement,GRP94 [2],little to no binding
Nc1ncnc2c1ncn2[C@@H]1O[C@H](CO)[C@@H](O)[C@H]1O [adenosine],competition with [3H]-NECA for binding to GRP94 (adenosine ligands),GRP94 [2],relative displacement activity approximating that observed for ADP
same,effect of excess Mg2+ on binding to GRP94,GRP94 [2],without effect
Nc1ncnc2c1ncn2[C@H]1C[C@H](O)[C@@H](COP(=O)(O)OP(=O)(O)OP(=O)(O)O)O1 [deoxyATP],nucleoside base specificity: binding by [3H]-NECA competitive displacement,GRP94 [2],could bind
C[C@@H]1C[C@H]2O[C@@H]2/C=C\C=C\C(=O)Cc2c(Cl)c(O)cc(O)c2C(=O)O1 [radicicol],binding stoichiometry of radicicol to Hsp90,[3]; Roe et al. (1999),2 mol radicicol/mol Hsp90 dimer
same,effect on casein kinase II activity,casein kinase II,"neither NECA nor radicicol, both of which bind to the N-terminal nucleotide binding domain of GRP94, significantly inhibit GRP94 derived or casein kinase II activity"
Nc1ncnc2c1ncn2[C@@H]1O[C@H](COP(=O)(O)O)[C@@H](O)[C@H]1O [AMP],competition with [3H]-NECA for binding to GRP94 (adenosine ligands),GRP94 [2],effectively competed
same,effect of excess Mg2+ on binding to GRP94,GRP94 [2],markedly stimulated
Nc1ncnc2c1ncn2[C@@H]1O[C@H](COP(=O)(O)OP(=O)(O)O)[C@@H](O)[C@H]1O [ADP],change of GRP94 tryptophan fluorescence,GRP94 [4],the tryptophan fluorescence was decreased
same,affinity of N-terminal domain of Hsp90 for ADP relative to ATP,[3]; Prodromou et al. (1997),four-fold higher affinity than that observed for ATP
same,competition with [3H]-NECA for binding to GRP94 (adenosine ligands),GRP94 [2],effectively competed
same,effect of excess Mg2+ on binding to GRP94,GRP94 [2],markedly stimulated
same,extent of competition of NECA binding to GRP94,GRP94 [2]; FIGS. 10A–10C,wholly competed
same,relative affinities for GRP94 in presence of Mg2+,GRP94 [2]; excess Mg2+,nearly identical relative affinities
heparin,effect on GRP94 autophosphorylation activity,GRP94 [1],markedly attenuated
same,effect on casein kinase II activity,casein kinase II,markedly attenuated
Nc1ccn([C@@H]2O[C@H](COP(=O)(O)OP(=O)(O)OP(=O)(O)O)[C@@H](O)[C@H]2O)c(=O)n1 [CTP],nucleoside base specificity: binding by [3H]-NECA competitive displacement,GRP94 [2],little to no binding
"O=S(=O)(O)c1cccc2cccc(Nc3ccccc3)c12 [8-ANS, 1,8-anilinonaphthalenesulfonate]",fluorophore binding to heat shocked GRP94,GRP94 [5],binds avidly following heat shock
same,fluorophore binding to native GRP94,GRP94 [5],weak interactions with native GRP94
"4,4′-dianilino-1,1-binaphthyl-5,5-disulfonic acid [bis-ANS]",site of bis-ANS binding to GRP94,GRP94 [6],residues 271–281 of the N-terminal domain of GRP94
same,fluorophore binding to native GRP94,GRP94 [5],bi-phasic
same,saturability of bis-ANS binding,GRP94 [5]; heat shocked GRP94,binds in a saturable manner to heat shocked GRP94
same,"near maximal bis-ANS binding, molar excess of GRP94 monomer over bis-ANS","GRP94 [5]; heat shocked GRP94, fixed bis-ANS 50 nM",20 -fold molar excess
same,bis-ANS binding to native GRP94 following extended incubations,"GRP94 [5]; native GRP94, extended incubation (20 hours)",a level of fluorophore binding similar to that seen with heat shocked GRP94 was observed
same,Kd,"GRP94 [5]; read-out: half maximal binding of bis-ANS to heat shocked GRP94, fixed bis-ANS 50 nM, increasing heat shocked GRP94, emission 475 nm",110 nM
same,stimulation of GRP94 peptide binding activity over native protein,GRP94 [7],four to five-fold
same,trypsin proteolysis pattern of GRP94 (conformation),GRP94 [8],substantially reduced recovery of the prominent proteolysis products
same,trypsin proteolysis pattern of HSP90 (conformation),HSP90,Essentially identical proteolysis patterns were observed following either heat shock or bis-ANS treatment of HSP90
same,GRP94 quaternary structure (oligomerization),GRP94 [9],induces changes in the quaternary structure of GRP94 that mimic those seen upon heat shock
same,GRP94 secondary structure (CD spectra),GRP94 [10],does not alter GRP94 secondary structure
same,citrate synthase thermal aggregation in presence of compound-treated GRP94,GRP94 [11],no thermal aggregation of citrate synthase was detectable
"CCC(=O)c1ccc2cc(N(C)C)ccc2c1 [Prodan, 6-propionyl-2-(dimethylamino)naphthalene]",fluorophore binding to heat shocked GRP94,GRP94 [5],does not interact with the hydrophobic binding pocket(s) displayed by heat shocked GRP94
